Experimental data taken from patent publication US20110212978A1 (AstraZeneca AB, priority 2005, published 2011).

Columns and labels:
VEGF RTK = details: cited from earlier work
MX-1 tumour xenografts = test: MX-1 human tumour xenograft growth in female athymic mice; type: in vivo; details: female nude mice; for Day 14 Median tumour volume / Day 14 geometric mean tumour volume: Day 14 after implantation (randomisation, start of treatment), ZD6474 25 mg/kg/day p.o., pemetrexed 75 mg/kg i.p.; for Day 28 Median tumour volume / Day 28 geometric mean tumour volume: ZD6474 25 mg/kg/day p.o. once daily, pemetrexed 75 mg/kg i.p. once daily days 14-18 and 21-25
Method: Tumour implantation procedures were performed on mice of at least 5 weeks of age. Human tumour xenografts were grown in female athymic (nu/nu genotype, Swiss) mice. MX-1 tumour fragments were implanted into athymic mice and allowed to grow to 0.7-1 cm^3 to provide donor tumour tissue. The donor tumours were surgically excised and smaller tumour fragments (20-30 mg) were implanted subcutaneously (s.c.) in the right flanks of the experimental athymic mice. When the mean tumour volume reached 0.1-0.3 cm^3, randomisation was carried out. […] An additional group of animals received a combination of pemetrexed and ZD6474, using the same doses and schedules as used for single agent treatment.
Tumour volumes were assessed at least twice weekly by bilateral Vernier caliper measurement. Growth inhibition from the start of treatment was assessed by comparison of the differences in tumour volume between control and treated groups.
Experiments were conducted on female athymic mice (Swiss nu/nu genotype, >6 weeks of age). MX-1 human tumour xenografts were established in mice from tumour cell implants. The donor tumours were surgically excised when they reached a volume of 0.7-1 cm^3, divided into fragments and frozen until further use. At the start of the experiment, fragments (approximately 30 mg) were thawed and implanted (subcutaneously in the dorsal flank) in the experimental animals. Tumour volumes were assessed at least twice weekly by bilateral Vernier calliper measurements. Mice were randomised into treatment groups when the tumour volume reached 0.1-0.2 cm^3. […] An additional group of animals received a combination of ZD6474 and pemetrexed, using the same doses and schedules as used for single agent treatment.
Tumour growth inhibition (TGI) from the start of treatment was assessed by comparison of the differences in tumour volume between control and treated groups.

tumour growth = details: range of models, once-daily oral administration; cited from earlier work

SMILES: COc1cc2c(Nc3ccc(Br)cc3F)ncnc2cc1OCC1CCN(C)CC1 [ZD6474, 4-(4-bromo-2-fluoroanilino)-6-methoxy-7-(1-methylpiperidin-4-ylmethoxy)quinazoline]
- Inhibition of VEGF RTK (VEGF RTK): potent inhibitor
- Day 14 Median tumour volume (MX-1 tumour xenografts): 0.148 cm^3
- Day 14 geometric mean tumour volume (MX-1 tumour xenografts): 0.148 cm^3
- Day 28 Median tumour volume (MX-1 tumour xenografts): 0.967 cm^3
- Day 28 geometric mean tumour volume (MX-1 tumour xenografts): 0.702 cm^3
- Anti-tumour activity (tumour growth): broad-spectrum anti-tumour activity

SMILES: Nc1nc2[nH]cc(CCc3ccc(C(=O)N[C@@H](CCC(=O)[O-])C(=O)[O-])cc3)c2c(=O)[nH]1.[Na+].[Na+] [pemetrexed, L-Glutamic acid, N-[4-[2-(2-amino-4,7-dihydro-4-oxo-1H-pyffolo[2,3-d]pyrimidin-5-yl)ethyl]benzoyl]-, disodium salt, hetpahydrate]
- Day 14 Median tumour volume (MX-1 tumour xenografts): 0.147 cm^3
- Day 14 geometric mean tumour volume (MX-1 tumour xenografts): 0.146 cm^3
- Day 28 Median tumour volume (MX-1 tumour xenografts): 0.794 cm^3
- Day 28 geometric mean tumour volume (MX-1 tumour xenografts): 0.751 cm^3
